Active and inactive are the calls of the source. The rule behind the calls is not given here.
How the values were obtained:
[1] = molecular target: Serine/threonine-protein kinase tousled-like 1 (Homo sapiens) (UniProt Q9UKI8); test: Inhibition of recombinant full-length human TLK1 assessed as residual activity at 10 uM using casein as substrate measured after 40 mins in presence of [gamma33P]ATP by scintillation counting method
[2] = molecular target: Fibroblast growth factor receptor 4 (Homo sapiens) (UniProt P22455); test: Inhibition of recombinant human FGFR4 (442 to 755 residues) assessed as residual activity at 10 uM using poly(Glu, Tyr) 4:1 as substrate measured after 40 mins in presence of [gamma33P]ATP by scintillation counting method
[3] = molecular target: Mitogen-activated protein kinase kinase kinase kinase 5 (Homo sapiens) (UniProt Q9Y4K4); test: Inhibition of recombinant full-length human MAP4K5 assessed as residual activity at 10 uM using myelin basic protein as substrate measured after 40 mins in presence of [gamma33P]ATP by scintillation counting method
[4] = molecular target: Phosphatidylinositol 3-kinase C2 domain-containing subunit gamma (Homo sapiens) (UniProt O75747); test: Inhibition of recombinant human PI3KC2gamma (468 to 1203 residues) assessed as residual activity at 10 uM using phosphatidylinositol as substrate measured after 40 mins by HTRF assay
Tubulin (Homo sapiens) [5] = molecular target: T1, Tubulin (Homo sapiens) (UniProt P68371+Q9H4B7+P0DPH7+P68366+Q13509+Q71U36+P04350+Q3ZCM7+P07437+P68363+Q9BQE3+Q6PEY2+Q13885+Q9BVA1+Q9BUF5); test: Disruption of microtubule network in human HCT116 cells assessed as microtubule condensation at 50 nM incubated for 18 hrs by FITC/DAPI staining-based confocal microscopic analysis; format: cell-based
[6] = tested on: Hepatocyte growth factor receptor (Homo sapiens), P08581 [Y1230H]; test: Inhibition of recombinant human MET A1209G/V1290L/Y1248H mutant (974 to end residues) assessed as residual activity at 10 uM using KKKGQEEEYVFIE as substrate measured after 40 mins in presence of [gamma33P]ATP by scintillation counting method
[7] = molecular target: Myosin light chain kinase, smooth muscle (Homo sapiens) (UniProt Q15746); test: Inhibition of recombinant human MLCK (1425 to 1771 residues) assessed as residual activity at 10 uM using calmodulin as substrate measured after 40 mins in presence of [gamma33P]ATP by scintillation counting method
Homo sapiens = species on record: Homo sapiens; test: Inhibition of human Ros V2262A mutant (1883 to end residues) using KKKSPGEYVNIEFG as substrate measured after 40 mins in presence of [gamma33P]ATP by scintillation counting method; design: scale not given: the % may be the effect or the level left
[8] = molecular target: Cytoplasmic tyrosine-protein kinase BMX (Homo sapiens) (UniProt P51813); test: Inhibition of full-length recombinant human BMX assessed as residual activity at 10 uM using poly(Glu, Tyr) 4:1 as substrate measured after 40 mins in presence of [gamma33P]ATP by scintillation counting method
[9] = molecular target: Serine/threonine-protein kinase ULK1 (Homo sapiens) (UniProt O75385); test: Inhibition of human ULK1 (1 to 314 residues) using casein as substrate measured after 40 mins in presence of [gamma33P]ATP by scintillation counting method; design: scale not given: the % may be the effect or the level left
[10] = tested on: Fibroblast growth factor receptor 1 (Homo sapiens), P11362 [V561M]; test: Inhibition of recombinant human FGFR1 V561M mutant (456 to 765 residues) assessed as residual activity at 10 uM using GGEEEEYFELVKKKK as substrate measured after 40 mins in presence of [gamma33P]ATP by scintillation counting method
[11] = molecular target: Mitogen-activated protein kinase 14 (Homo sapiens) (UniProt Q16539); test: Inhibition of recombinant full-length human SAPK2a assessed as residual activity at 10 uM using myelin basic protein as substrate measured after 40 mins in presence of [gamma33P]ATP by scintillation counting method
[12] = molecular target: Tyrosine-protein kinase JAK2 (Homo sapiens) (UniProt O60674); test: Inhibition of recombinant human JAK2 (808 to end residues) assessed as residual activity at 10 uM using KTFCGTPEYLAPEVRREPRILSEEEQEMFRDFDYIADWC as substrate measured after 40 mins in presence of [gamma33P]ATP by scintillation counting method
Tubulin (Homo sapiens) [13] = molecular target: T1, Tubulin (Homo sapiens); test: Disruption of microtubule network in human HCT116 cells assessed as microtubule disorganization at 50 nM for 18 hrs by FITC/DAPI staining-based confocal microscopic analysis; format: cell-based
[14] = molecular target: Fibroblast growth factor receptor 2 (Homo sapiens) (UniProt P21802); test: Inhibition of recombinant human FGFR2 (456 to 770 residues) assessed as residual activity at 10 uM using poly(Glu, Tyr) 4:1 as substrate measured after 40 mins in presence of [gamma33P]ATP by scintillation counting method
[15] = molecular target: Casein kinase I isoform gamma-2 (Homo sapiens) (UniProt P78368); test: Inhibition of recombinant human CK1gamma2 (18 to end residues) assessed as residual activity at 10 uM using KRRRALS(p)VASLPGL as substrate measured after 40 mins in presence of [gamma33P]ATP by scintillation counting method
SW-620 [16] = test: Induction of apoptosis in human SW620 cells assessed as increase in cleaved caspase3 expression up to 200 nM measured after 48 hrs by Western blot analysis; format: functional, cell-based
[17] = molecular target: Serine/threonine-protein kinase 17A (Homo sapiens) (UniProt Q9UEE5); test: Inhibition of recombinant full-length human DRAK1 assessed as residual activity at 10 uM using KKLNRTLSFAEPG as substrate measured after 40 mins in presence of [gamma33P]ATP by scintillation counting method
[18] = molecular target: Casein kinase II subunit alpha (Homo sapiens) (UniProt P68400); test: Inhibition of recombinant full length human CK2alpha2 assessed as residual activity at 10 uM using RRRDDDSDDD as substrate measured after 40 mins in presence of [gamma33P]ATP by scintillation counting method
[19] = molecular target: Receptor tyrosine-protein kinase erbB-4 (Homo sapiens) (UniProt Q15303); test: Inhibition of recombinant human ErbB4 (706 to 991 residues) assessed as residual activity at 10 uM using poly (Glu, Tyr) 4:1 as substrate measured after 40 mins in presence of [gamma33P]ATP by scintillation counting method
[20] = molecular target: Calcium/calmodulin-dependent protein kinase type II subunit alpha (Homo sapiens) (UniProt Q9UQM7); test: Inhibition of recombinant full-length human CaMK2alpha assessed as residual activity at 10 uM using calmodulin as substrate measured after 40 mins in presence of [gamma33P]ATP by scintillation counting method
[21] = molecular target: MAPK/MAK/MRK overlapping kinase (Homo sapiens) (UniProt Q9UQ07); test: Inhibition of recombinant human MOK (1 to 343 residues) assessed as residual activity at 10 uM using RSRSRSRSRSRSRSR as substrate measured after 40 mins in presence of [gamma33P]ATP by scintillation counting method
SW-620 [22] = test: Antiproliferative activity against human SW620 cells assessed as reduction in cell viability after 72 hrs by MTT assay; format: functional, cell-based; conditions: SW-620, 72 h

Fibroblast growth factor receptor 2 (Homo sapiens), sequence (P21802 22-821 limits assumed): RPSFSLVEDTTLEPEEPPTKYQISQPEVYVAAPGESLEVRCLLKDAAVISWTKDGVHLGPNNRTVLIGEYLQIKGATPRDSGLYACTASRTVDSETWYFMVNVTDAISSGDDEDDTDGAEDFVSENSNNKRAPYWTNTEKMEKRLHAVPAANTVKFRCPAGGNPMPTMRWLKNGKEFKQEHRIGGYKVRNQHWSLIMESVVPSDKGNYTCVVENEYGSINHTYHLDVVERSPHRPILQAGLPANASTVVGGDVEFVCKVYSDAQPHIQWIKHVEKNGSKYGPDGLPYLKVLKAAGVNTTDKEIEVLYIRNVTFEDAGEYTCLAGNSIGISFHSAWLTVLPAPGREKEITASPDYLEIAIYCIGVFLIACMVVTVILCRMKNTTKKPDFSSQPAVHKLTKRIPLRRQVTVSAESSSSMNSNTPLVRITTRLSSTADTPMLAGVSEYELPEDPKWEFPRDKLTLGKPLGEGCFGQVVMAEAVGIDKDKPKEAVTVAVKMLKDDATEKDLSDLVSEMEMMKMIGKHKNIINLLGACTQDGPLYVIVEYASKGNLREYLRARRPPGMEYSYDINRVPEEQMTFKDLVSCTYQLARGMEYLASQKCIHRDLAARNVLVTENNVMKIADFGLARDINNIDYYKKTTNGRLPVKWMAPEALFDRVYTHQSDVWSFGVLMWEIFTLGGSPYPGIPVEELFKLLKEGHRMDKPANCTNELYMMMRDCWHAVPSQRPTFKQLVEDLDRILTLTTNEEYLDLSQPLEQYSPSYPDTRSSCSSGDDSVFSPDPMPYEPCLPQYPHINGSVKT
Fibroblast growth factor receptor 4 (Homo sapiens), sequence (P22455 22-802 limits assumed): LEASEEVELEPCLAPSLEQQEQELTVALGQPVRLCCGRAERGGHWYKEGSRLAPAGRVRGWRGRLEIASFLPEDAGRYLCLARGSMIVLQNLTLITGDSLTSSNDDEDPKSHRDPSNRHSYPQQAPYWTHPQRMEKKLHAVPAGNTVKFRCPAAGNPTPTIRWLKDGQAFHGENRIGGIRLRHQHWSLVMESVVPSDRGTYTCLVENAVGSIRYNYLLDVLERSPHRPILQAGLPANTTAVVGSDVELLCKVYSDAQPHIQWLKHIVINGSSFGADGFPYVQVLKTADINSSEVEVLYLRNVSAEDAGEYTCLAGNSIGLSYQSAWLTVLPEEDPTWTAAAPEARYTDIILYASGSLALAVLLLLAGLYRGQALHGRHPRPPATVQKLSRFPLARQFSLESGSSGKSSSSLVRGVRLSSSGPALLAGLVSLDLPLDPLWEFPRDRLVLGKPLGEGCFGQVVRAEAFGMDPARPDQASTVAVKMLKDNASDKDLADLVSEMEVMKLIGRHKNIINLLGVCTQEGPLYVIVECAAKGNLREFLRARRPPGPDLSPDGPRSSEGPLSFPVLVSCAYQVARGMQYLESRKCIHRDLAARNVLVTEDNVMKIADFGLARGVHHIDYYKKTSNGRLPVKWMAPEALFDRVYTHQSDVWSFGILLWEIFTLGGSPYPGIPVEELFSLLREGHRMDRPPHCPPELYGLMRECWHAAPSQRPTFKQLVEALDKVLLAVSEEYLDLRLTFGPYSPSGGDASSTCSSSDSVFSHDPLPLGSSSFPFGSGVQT
Serine/threonine-protein kinase tousled-like 1 (Homo sapiens), sequence (Q9UKI8 whole entry, the tested form may be a part): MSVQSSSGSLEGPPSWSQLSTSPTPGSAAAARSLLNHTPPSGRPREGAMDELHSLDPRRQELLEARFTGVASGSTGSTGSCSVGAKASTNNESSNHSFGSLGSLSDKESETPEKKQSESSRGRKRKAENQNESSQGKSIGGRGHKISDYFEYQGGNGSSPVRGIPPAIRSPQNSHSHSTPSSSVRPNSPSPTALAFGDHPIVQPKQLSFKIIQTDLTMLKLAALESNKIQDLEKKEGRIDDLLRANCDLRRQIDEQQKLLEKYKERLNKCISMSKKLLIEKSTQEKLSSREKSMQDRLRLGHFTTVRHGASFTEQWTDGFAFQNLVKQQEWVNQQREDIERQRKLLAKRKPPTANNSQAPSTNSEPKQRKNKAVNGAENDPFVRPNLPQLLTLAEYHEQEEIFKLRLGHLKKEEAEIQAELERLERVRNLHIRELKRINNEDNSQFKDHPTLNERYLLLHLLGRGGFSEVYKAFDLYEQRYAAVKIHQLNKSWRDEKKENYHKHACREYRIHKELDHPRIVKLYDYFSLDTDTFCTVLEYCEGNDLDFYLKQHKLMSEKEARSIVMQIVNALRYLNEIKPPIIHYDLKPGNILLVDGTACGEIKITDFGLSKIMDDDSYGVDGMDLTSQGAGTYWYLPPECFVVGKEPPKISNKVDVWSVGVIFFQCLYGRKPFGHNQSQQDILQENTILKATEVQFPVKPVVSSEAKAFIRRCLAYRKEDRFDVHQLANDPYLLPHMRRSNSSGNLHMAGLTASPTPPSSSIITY
Myosin light chain kinase, smooth muscle (Homo sapiens), sequence (Q15746 whole entry, the tested form may be a part): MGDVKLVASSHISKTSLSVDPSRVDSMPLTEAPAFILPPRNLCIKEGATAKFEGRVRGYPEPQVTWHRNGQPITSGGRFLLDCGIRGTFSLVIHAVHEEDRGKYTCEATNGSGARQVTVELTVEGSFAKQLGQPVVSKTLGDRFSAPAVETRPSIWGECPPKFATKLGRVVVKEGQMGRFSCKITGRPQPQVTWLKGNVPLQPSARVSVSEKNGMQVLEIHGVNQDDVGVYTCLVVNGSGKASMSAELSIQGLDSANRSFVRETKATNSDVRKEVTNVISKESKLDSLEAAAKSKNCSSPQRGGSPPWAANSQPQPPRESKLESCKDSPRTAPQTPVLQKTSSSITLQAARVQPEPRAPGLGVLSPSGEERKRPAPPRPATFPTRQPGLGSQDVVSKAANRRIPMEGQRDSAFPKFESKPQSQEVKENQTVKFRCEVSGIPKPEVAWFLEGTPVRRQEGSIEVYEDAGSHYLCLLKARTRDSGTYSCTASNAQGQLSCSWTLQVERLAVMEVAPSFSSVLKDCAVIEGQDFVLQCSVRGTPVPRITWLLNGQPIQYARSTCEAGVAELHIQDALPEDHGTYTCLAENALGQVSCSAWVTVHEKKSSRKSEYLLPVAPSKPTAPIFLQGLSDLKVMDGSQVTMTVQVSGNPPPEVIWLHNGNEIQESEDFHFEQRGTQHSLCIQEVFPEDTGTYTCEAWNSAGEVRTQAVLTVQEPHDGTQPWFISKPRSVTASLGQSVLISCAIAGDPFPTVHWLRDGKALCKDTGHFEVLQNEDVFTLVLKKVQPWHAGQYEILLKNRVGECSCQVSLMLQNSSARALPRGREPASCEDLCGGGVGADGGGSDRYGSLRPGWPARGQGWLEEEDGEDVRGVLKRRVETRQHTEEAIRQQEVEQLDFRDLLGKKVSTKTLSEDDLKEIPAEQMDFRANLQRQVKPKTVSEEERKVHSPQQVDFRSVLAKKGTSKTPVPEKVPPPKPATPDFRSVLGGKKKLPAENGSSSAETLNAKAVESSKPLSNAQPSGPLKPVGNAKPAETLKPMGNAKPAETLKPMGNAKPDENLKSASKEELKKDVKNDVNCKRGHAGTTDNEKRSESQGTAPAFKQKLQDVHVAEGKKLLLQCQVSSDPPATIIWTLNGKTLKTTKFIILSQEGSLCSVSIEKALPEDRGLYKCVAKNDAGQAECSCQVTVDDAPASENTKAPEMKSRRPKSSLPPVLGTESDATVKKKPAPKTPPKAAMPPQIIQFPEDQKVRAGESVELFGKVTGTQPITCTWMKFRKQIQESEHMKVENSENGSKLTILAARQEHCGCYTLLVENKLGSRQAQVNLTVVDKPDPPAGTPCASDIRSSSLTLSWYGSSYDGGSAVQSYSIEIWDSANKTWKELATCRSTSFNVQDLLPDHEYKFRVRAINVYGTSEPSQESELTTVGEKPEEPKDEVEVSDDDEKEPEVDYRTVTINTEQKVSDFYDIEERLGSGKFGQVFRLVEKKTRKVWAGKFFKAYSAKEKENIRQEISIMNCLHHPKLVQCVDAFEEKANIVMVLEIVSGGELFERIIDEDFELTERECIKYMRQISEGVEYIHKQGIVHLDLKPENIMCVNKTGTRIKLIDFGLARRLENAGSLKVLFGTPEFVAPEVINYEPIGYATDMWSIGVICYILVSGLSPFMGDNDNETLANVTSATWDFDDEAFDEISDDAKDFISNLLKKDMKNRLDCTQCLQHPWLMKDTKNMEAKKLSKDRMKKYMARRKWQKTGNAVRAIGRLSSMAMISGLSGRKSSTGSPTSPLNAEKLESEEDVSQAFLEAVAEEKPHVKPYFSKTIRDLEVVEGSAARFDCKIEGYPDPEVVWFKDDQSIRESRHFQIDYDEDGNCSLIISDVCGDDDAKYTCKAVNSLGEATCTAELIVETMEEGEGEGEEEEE
Casein kinase I isoform gamma-2 (Homo sapiens), sequence (P78368 whole entry, looked up, canonical isoform): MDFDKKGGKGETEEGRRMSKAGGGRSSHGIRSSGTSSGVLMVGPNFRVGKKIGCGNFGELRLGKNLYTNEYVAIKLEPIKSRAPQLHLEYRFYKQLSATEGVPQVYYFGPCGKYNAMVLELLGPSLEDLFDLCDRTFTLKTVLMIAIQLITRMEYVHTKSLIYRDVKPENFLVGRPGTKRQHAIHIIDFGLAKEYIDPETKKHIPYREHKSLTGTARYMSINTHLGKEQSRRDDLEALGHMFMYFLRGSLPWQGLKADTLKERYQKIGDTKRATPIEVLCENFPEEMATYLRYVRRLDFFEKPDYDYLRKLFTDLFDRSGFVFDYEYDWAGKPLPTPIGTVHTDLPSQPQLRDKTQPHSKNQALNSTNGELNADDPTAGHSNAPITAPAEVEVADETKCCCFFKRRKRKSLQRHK
Casein kinase II subunit alpha (Homo sapiens), sequence (P68400 whole entry, looked up, the tested form may be a part): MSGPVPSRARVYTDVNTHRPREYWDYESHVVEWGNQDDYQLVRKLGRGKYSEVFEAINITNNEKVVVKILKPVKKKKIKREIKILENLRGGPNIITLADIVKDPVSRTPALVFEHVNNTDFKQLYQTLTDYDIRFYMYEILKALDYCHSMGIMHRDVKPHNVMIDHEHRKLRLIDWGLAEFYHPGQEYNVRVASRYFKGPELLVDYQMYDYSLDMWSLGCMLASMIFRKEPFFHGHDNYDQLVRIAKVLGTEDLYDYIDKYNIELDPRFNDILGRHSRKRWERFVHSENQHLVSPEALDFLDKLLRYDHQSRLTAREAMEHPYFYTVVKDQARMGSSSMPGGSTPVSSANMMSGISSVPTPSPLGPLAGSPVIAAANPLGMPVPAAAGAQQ

Cc1cc(C)c(CNc2nc(Cl)nc3c2ncn3C2CCCC2)c(=O)[nH]1
Activity [1]: 97% | Activity [2]: 100% | Activity [3]: 130% | Activity [4]: 100% | Activity (Tubulin (Homo sapiens) [5]): Active | Activity [6]: 99% | Activity [7]: 94% | Activity (Homo sapiens): 102% | Activity [8]: 132% | Activity [9]: 104% | Activity [10]: 95.5% | Activity [11]: 109% | Activity [12]: 115% | Activity (Tubulin (Homo sapiens) [13]): Active | Activity [14]: 106% | Activity [15]: 104% | Activity (SW-620 [16]): Active | Activity [17]: 91.5% | Activity [18]: 89.5% | Activity [19]: 103% | Activity [20]: 92% | Activity [21]: 104% | IC50 (SW-620 [22]): 0.06 µM

Reference: ChEMBL document CHEMBL4311992, “Discovery of 3-(((9H-purin-6-yl)amino)methyl)-4,6-dimethylpyridin-2(1H)-one derivatives as novel tubulin polymerization inhibitors for treatment of cancer” (Eur J Med Chem, 2019)
